The text below walks through data of patent US6548496B2, “Substituted 3-cyano-[1.7], [1.5], and [1.8] naphthyridine inhibitors of tyrosine kinases” (American Cyanamid Company, priority 1999, dated 2003).

In general, IC50 refers to the concentration at which inhibition is half-maximal. Broadly, the melting point is the temperature of the solid-liquid transition.

≈ marks a conversion by molar mass, not a printed value.

Data set [1] has as its target Epithelial Cell Kinase (ECK) (Homo sapiens, UniProt P29317). As to the kind of experiment: Inhibition of Epithelial Cell Kinase (ECK). It counts as biochemical. As to conditions: biotinylated peptide substrate, HRP anti-phosphotyrosine readout, pH 7.2. Here is the method:
In this standard pharmacological test procedure, a biotinylated peptide substrate is first immobilized on neutravidin-coated microtiter plates. The test drug, the Epithelial Cell Kinase (ECK), Mg^++, sodium vanadate (a protein tyrosine phosphatase inhibitor), and an appropriate buffer to maintain pH (7.2) are then added to the immobilized substrate-containing microtiter wells. ATP is then added to initiate phosphorylation. After incubation, the assay plates are washed with a suitable buffer leaving behind phosphorylated peptide which is exposed to horse radish peroxidase (HRP)-conjugated anti-phosphotyrosine monoclonal antibody. The antibody-treated plates are washed again and the HRP activity in individual wells is quantified as a reflection of degree of substrate phosphorylation. This nonradioactive format was used to identify inhibitors of ECK tyrosine kinase activity where the IC50 is the concentration of drug that inhibits substrate phosphorylation by 50%. Multiple entries for a given compound indication it was tested multiple times.

Another data set concerns MDA435. The experiment in a line: Inhibition of cancer cell growth by cell number, MDA435. The settings on record: Homo sapiens, MDA435; 48 hours exposure, Sulforhodamine B. Format: cell-based, Human. Here is the method: (§1) Human tumor cell lines were plated in 96-well plates (250 μl/well, 1-6×10^4 cells/ml) in RPMI 1640 medium, containing 5% FBS (Fetal Bovine Serum). […] After 48 hours exposure to test compounds, cells were fixed with trichloroacetic acid, and stained with Sulforhodamine B. After washing with trichloroacetic acid, bound dye was solubilized in 10 mM Tris base and optical density was determined using a plate reader. Under conditions of the assay the optical density is proportional to the number of cells in the well. IC50s (concentrations causing 50% inhibition of cell growth) were determined from the growth inhibition plots. The test procedure is described in details by Philip Skehan et. at J. Natl. Canc. Inst., 82, 1107-1112 (1990). […] Information about some of the cell lines used in these test procedures is available from the American […]: Cell Lines and Hybridomas, 1994 Reference Guide, 8th Edition. The Her2Neu cell line is a 3T3 line that has bbeen transfected with Her2 receptor kinase.

The next data set concerns A431. The experiment in a line: Inhibition of cancer cell growth by cell number, A431. It counts as cell-based, Human. As to conditions: Homo sapiens, A-431; 48 hours exposure, Sulforhodamine B. On the procedure: as §1
A further data set has as its system SKBR3. The experiment in a line: Inhibition of cancer cell growth by cell number, SKBR3. It counts as cell-based, Human. The settings on record: Homo sapiens, SK-BR-3; 48 hours exposure, Sulforhodamine B. On the procedure:
as §1

A further data set has as its system A2780S. As to the kind of experiment: Inhibition of cancer cell growth by cell number, A2780S. It counts as cell-based, Human. As to conditions: Homo sapiens, A2780S; 48 hours exposure, Sulforhodamine B. Here is the method:
as §1

The test system of the next data set is A2780DDP. As to the kind of experiment: Inhibition of cancer cell growth by cell number, A2780DDP. Format: cell-based, Human. The settings on record: Homo sapiens; 48 hours exposure, Sulforhodamine B. Here is the method: as §1
The next data set concerns SW620. The experiment in a line: Inhibition of cancer cell growth by cell number, SW620. It counts as cell-based, Human. As to conditions: Homo sapiens, SW-620; 48 hours exposure, Sulforhodamine B. On the procedure: as §1
For data set [2], the target named is T1, epidermal growth factor receptor kinase (EGF-R), His-tagged cytoplasmic domain of EGFR (Homo sapiens, UniProt P00533).
T1 construct: containing the EGFR cDNA encoding amino acids 645-1186 preceded by Met-Ala-(His)6; made in house; host or cells: Sf9 insect cells, recombinant baculovirus vHcEGFR52
T1 sequence (P00533 669-1210): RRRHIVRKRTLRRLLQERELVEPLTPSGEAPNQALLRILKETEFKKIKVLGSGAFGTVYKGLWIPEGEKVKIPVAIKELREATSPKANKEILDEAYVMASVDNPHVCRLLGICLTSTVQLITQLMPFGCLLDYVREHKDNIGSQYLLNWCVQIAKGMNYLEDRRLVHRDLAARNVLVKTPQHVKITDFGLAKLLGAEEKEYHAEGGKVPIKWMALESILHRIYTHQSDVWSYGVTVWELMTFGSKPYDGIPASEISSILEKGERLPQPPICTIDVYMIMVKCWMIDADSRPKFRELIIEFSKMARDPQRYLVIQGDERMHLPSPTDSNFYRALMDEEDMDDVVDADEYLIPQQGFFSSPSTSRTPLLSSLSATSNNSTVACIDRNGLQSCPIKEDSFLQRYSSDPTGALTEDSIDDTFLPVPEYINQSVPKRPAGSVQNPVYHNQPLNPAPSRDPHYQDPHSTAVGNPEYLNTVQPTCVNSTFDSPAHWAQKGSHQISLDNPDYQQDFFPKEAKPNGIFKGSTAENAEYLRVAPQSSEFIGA
The experiment in a line: Inhibition of EGF-R kinase using recombinant enzyme. It counts as biochemical. As to conditions: RR-SRC peptide substrate, 33P-ATP, 90 min at room temperature. Here is the method:
Representative test compounds were evaluated for their ability to inhibit the phosphorylation of the tyrosine residue of a peptide substrate catalyzed by the enzyme epidermal growth factor receptor kinase. The peptide substrate (RR-SRC) has the sequence arg-arg-leu-ile-glu-asp-ala-glu-tyr-ala-ala-arg-gly. The enzyme used in this assay is the His-tagged cytoplasmic domain of EGFR. A recombinant baculovirus (vHcEGFR52) was constructed containing the EGFR cDNA encoding amino acids 645-1186 preceded by Met-Ala-(His)6. Sf9 cells in 100 mm plates were infected at an moi of 10 pfu/cell and cells were harvested 48 h post infection. A cytoplasmic extract was prepared using 1% Triton X-100 and applied to Ni-NTA column. After washing the column with 20 mM imidazole, HcEGFR was eluted with 250 mM imidazole (in 50 mM Na2HPO4, pH 8.0, 300 mM NaCl). […]
For the enzyme reaction, 10 uL of each inhibitor (at various concentrations) were added to each well of a 96-well plate. […] The filter discs were washed 2× with 0.5% phosphoric acid and radioactivity was measured using a liquid scintillation counter.
The inhibition data for representative compounds of the invention are shown below in TABLE 1. […] The % inhibition of the test compound was determined for at least three different concentrations and the IC50 value was evaluated from the dose response curve. The % inhibition was evaluated with the following formula: […]

Sequence of Epithelial Cell Kinase (ECK) (P29317 24-976, species assumed): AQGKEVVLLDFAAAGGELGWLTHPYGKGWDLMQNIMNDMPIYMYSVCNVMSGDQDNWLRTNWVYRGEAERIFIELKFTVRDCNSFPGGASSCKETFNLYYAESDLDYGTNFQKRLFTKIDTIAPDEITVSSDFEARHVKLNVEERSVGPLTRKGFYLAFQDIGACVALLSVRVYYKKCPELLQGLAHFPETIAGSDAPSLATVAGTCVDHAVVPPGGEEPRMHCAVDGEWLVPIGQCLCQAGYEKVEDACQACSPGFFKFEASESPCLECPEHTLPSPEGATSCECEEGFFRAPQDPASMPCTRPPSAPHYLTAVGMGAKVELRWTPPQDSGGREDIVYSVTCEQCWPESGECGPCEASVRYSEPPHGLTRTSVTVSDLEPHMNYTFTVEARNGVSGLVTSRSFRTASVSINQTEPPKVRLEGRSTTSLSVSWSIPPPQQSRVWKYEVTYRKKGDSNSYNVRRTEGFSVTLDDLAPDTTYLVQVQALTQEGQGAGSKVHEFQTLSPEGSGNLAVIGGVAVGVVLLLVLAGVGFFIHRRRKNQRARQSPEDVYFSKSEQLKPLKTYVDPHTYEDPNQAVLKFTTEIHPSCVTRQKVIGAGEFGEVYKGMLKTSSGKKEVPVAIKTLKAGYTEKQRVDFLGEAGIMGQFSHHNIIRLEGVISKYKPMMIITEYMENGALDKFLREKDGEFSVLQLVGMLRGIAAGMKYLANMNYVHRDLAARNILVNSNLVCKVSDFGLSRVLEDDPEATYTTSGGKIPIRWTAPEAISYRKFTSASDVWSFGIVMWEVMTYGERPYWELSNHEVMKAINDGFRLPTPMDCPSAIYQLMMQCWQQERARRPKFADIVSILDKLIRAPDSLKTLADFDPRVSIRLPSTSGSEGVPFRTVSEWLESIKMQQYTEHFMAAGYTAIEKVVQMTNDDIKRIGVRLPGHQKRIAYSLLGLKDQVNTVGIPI

As for `Cc1ccc(Nc2c(C#N)cnc3cnc(F)cc23)cc1O` [Example 66, 6-Fluoro-4-(3-hydroxy-4-methyl-phenylamino)-[1,7]naphthyridine-3-carbonitrile], the melting point was 236 to 239 °C (dec.). The same compound gave an IC50 in data set [1] of more than 3.3 µM.

In turn, `CC#CC(=O)Nc1cnc2ncc(C#N)c(Nc3cccc(Br)c3)c2c1` [Example 24, But-2-ynoic Acid [5-(3-bromo-phenylamino)-6-cyano-[1,8]-naphthyridin-3-yl]-amide] displayed an IC50 in [1] of less than 0.04 µM.

Regarding `N#Cc1cnc2cnc(F)cc2c1Oc1ccc(Cl)cc1F` [Example 71, 4-(4-Chloro-2-fluoro-phenoxy)-6-fluoro-[1,7]naphthyridine-3-carbonitrile], the melting point fell in the range of 186 to 188 °C.

In the case of `COc1ccc(CNc2cc3c(Nc4cccc(Br)c4)c(C#N)cnc3cn2)cc1` [Example 58, 4-(3-Bromo-phenylamino)-6-(4-methoxy-benzylamino)-[1,7]naphthyridine-3-carbonitrile], the melting point is 82 to 86 °C (dec.).

In turn, `C[Si](C)(C)C#Cc1cc2c(Nc3cccc(Br)c3)c(C#N)cnc2cn1` [Example 85, 4-(3-Bromo-phenylamino)-6-trimethylsilanylethynyl-[1,7]naphthyridine-3-carbonitrile] displayed a melting point of 125 °C. The compound also gave an IC50 with MDA435 of 4.2 µg/mL (≈ 9.97 µM). Moreover, the midpoint of inhibition in the data set on A431, the IC50, lay at 3.06 µg/mL (≈ 7.25 µM). Moreover, the IC50 in the data set with SKBR3 amounted to 3.59 µg/mL (≈ 8.52 µM). This compound gave an IC50 in the data set with A2780S of 2.34 µg/mL (≈ 5.56 µM). Besides, the IC50 with A2780DDP was 2.97 µg/mL (≈ 7.05 µM). The midpoint of inhibition in the data set on SW620, the IC50, lay at 4.72 µg/mL (≈ 11.2 µM).

`N#Cc1cnc2cnc(F)cc2c1Nc1cccc(Br)c1` [Example 57, 4-(3-Bromo-phenylamino)-6-fluoro-[1,7]naphthyridine-3-carbonitrile] registered a melting point of 185 to 195 °C.

For the compound `CC#CC(=O)Nc1cc2c(Nc3cccc(Br)c3)c(C#N)cnc2cn1` [Example 61, But-2-ynoic Acid, [4-(3-bromo-phenylamino)-3-cyano-[1,7]naphthyridin-6-yl]-amide], the melting point is 255 °C (dec.).

Take `CNc1cc2c(Nc3cccc(Br)c3)c(C#N)cnc2cn1` [Example 64, 4-(3-Bromo-phenylamino)-6-methylamino-[1,7]naphthyridine-3-carbonitrile]: the melting point is 250 °C (dec.).

With `CN(C)CCOc1cc2c(Nc3cccc(Br)c3)c(C#N)cnc2cn1` [Example 77, 4-(3-Bromo-phenylamino)-6-(2-dimethylamino-ethoxy)-[1,7]naphthyridine-3-carbonitrile], the melting point was 138 to 139 °C. Also, in [1], the half-inhibitory concentration (IC50) was more than 2.4 µM.

As to `N#Cc1cnc2cnc(F)cc2c1Nc1ccc(F)c(Cl)c1` [Example 69, 4-(3-Chloro-4-fluoro-phenylamino)-6-fluoro-[1,7]naphthyridine-3-carbonitrile], the melting point lay within 108 to 111 °C.

`CN(C)CCOc1cc2c(Nc3ccc(Cl)cc3F)c(C#N)cnc2cn1` [Example 76, 4-(4-Chloro-2-fluoro-phenylamino)-6-(2-dimethylamino-ethoxy)-[1,7]naphthyridine-3-carbonitrile] came in with a melting point of 150 to 152 °C.

As for `N#Cc1cnc2cnc(Cl)cc2c1Nc1cccc(Br)c1` [Example 83, 4-(3-Bromo-phenylamino)-6-chloro-[1,7]naphthyridine-3-carbonitrile], the melting point is 220 to 223 °C.

Compound `CN(C)CCOc1cc2c(Nc3ccc(Oc4ccccc4)cc3)c(C#N)cnc2cn1` [Example 73, 6-(2-Dimethylamino-ethoxy)4(4-phenoxy-phenylamino)-[1,7]naphthyridine-3-carbonitrile] came in with a melting point of 159 to 161 °C.

Regarding `CC#CC(=O)Nc1cnc2ncc(C#N)c(Nc3ccc(F)c(Cl)c3)c2c1` [Example 27, But-2-ynoic acid [5-(3-chloro-4-fluoro-phenylamino)-6-cyano-[1,8]naphthyridin-3-yl]-amide], the IC50 in [2] was more than 0.1 µM.

In the case of `N#Cc1cnc2cnc(N)cc2c1Nc1cccc(Br)c1` [Example 59, 6-Amino-4-(3-bromo-phenylamino)-[1,7]naphthyridine-3-carbonitrile], the melting point is 185 to 190 °C (dec.).

Consider `N#Cc1cnc2cnc(F)cc2c1Nc1ccc(Oc2ccccc2)cc1` [Example 67, 6-Fluoro-4-(4-phenoxy-phenylamino)-[1,7]naphthyridine-3-carbonitrile], for which the melting point fell in the range of 211 to 213 °C.

`CN(C)CC=CC(=O)Nc1cc2c(Nc3cccc(Br)c3)c(C#N)cnc2cn1` [Example 62, 4-Dimethylamino-but-2-enoic Acid, [4-(3-bromo-phenylamino)-3-cyano-[1,7]naphthyridin-6-yl]-amide]: the melting point was 180 to 185 °C (dec.). Further, inhibition with SW620 was half-maximal at 0.356 µg/mL (≈ 0.789 µM) (IC50).

Regarding `C#Cc1cc2c(Nc3cccc(Br)c3)c(C#N)cnc2cn1` [Example 86, 4-(3-Bromo-phenylamino)-6-ethynyl-[1,7]naphthyridine-3-carbonitrile], the melting point was 224 °C (dec.).

`N#Cc1cnc2cnc(F)cc2c1Nc1ccc(Cl)cc1Cl` [Example 68, 4-(2,4-Dichloro-phenylamino)-6-fluoro-[1,7]naphthyridine-3-carbonitrile] had a melting point of 206 to 208 °C.

As for `N#Cc1cnc2cnc(NCCN3CCOCC3)cc2c1Nc1cccc(Br)c1` [Example 63, 4-(3-Bromo-phenylamino)-6-(2-morpholino-4-yl-ethylamino)-[1,7]naphthyridine-3-carbonitrile], the melting point was 80 to 96 °C (dec.).

In turn, `CN(C)CCOc1cc2c(Nc3ccc(F)c(Cl)c3)c(C#N)cnc2cn1` [Example 74, 4-(3-Chloro-4-fluoro-phenylamino)-6-(2-dimethylamino-ethoxy)-[1,7]naphthyridine-3-carbonitrile] showed a melting point of 131 to 132 °C.
